Source: patent US20260232006A1, “EMULSIONS FOR NICOTINE ENCAPSULATION” (NICOVENTURES TRADING LIMITED, priority 2023, published 2026)

Assays:
[1] = cited from earlier work
[2] = in mixture of mono- and diglycerides of capric and caprylic acid (Capmul MCM); 48 h at 30° C.
Method: Samples were blanketed with nitrogen, sonicated for 30 min, then placed in a thermostatic orbital shaker and continuously shaken at 300 rpm for 48 h at 30° C.

Structure (SMILES) | solubility in water [1] | solubility in fats and alcohols [1] | chemical stability ([1]; isolated, isomerizes to trans-bixin) | highest nicotine benzoate solubility in oil without sedimentation [2] [% by weight]
CC(/C=C/C=C(C)/C=C/C(=O)O)=C\C=C\C=C(C)\C=C\C=C(C)\C=C\C(=O)O (stereo in doubt) [norbixin, (2E,4E,6E,8E,10E,12E,14E,16E,18E)-4,8,13,17-tetramethylicosa-2,4,6,8,10,12,14,16,18-nonaenedioic acid] | water-soluble |  |  | 
COC(=O)/C=C/C(C)=C\C=C\C(C)=C\C=C\C=C(C)\C=C\C=C(C)\C=C\C(=O)O [bixin, (2E,4E,6E,8E,10E,12E,14E,16Z,18E)-20-methoxy-4,8,13,17-tetramethyl-20-oxoicosa-2,4,6,8,10,12,14,16,18-nonaenoic acid] | insoluble | soluble | chemically unstable when isolated | 
CN1CCCC1c1cccnc1.O=C(O)c1ccccc1 (centres unmarked) [nicotine benzoate] |  |  |  | 30
